In US9403774B2, “Guanidine and amine substituted tetrahydroisoquinoline compounds as factor xia inhibitors” (BRISTOL-MYERS SQUIBB COMPANY, priority 2012, dated 2016):
Where a name gives a salt, the structure may show the parent alone.

Molecular target: purified human Factor XIa (Homo sapiens (Human), UniProt P03951)
Assay: Factor XIa assay (chromogenic substrate S-2366 hydrolysis)
Format: biochemical
Details: substrate S-2366, pH 7.4
Procedure: The effectiveness of compounds of the present invention as inhibitors of the coagulation factors XIa, VIIa, IXa, Xa, XIIa, plasma kallikrein or thrombin, can be determined using a relevant purified serine protease, respectively, and an appropriate synthetic substrate. The rate of hydrolysis of the chromogenic or fluorogenic substrate by the relevant serine protease was measured both in the absence and presence of compounds of the present invention. […] A decrease in the rate of absorbance or fluorescence change in the presence of inhibitor is indicative of enzyme inhibition. Such methods are known to one skilled in the art. The results of this assay are expressed as the inhibitory constant, Ki.
Factor XIa determinations were made in 50 mM HEPES buffer at pH 7.4 containing 145 mM NaCl, 5 mM KCl, and 0.1% PEG 8000 (polyethylene glycol; JT Baker or Fisher Scientific). Determinations were made using purified human Factor XIa at a final concentration of 75-200 pM (Haematologic Technologies) and the synthetic substrate S-2366 (pyroGlu-Pro-Arg-pNA; CHROMOGENIX® or AnaSpec) at a concentration of 0.0002-0.001 M.
The Michaelis constant, Km, for substrate hydrolysis by each protease, was determined at 25° C. using the method of Lineweaver and Burk. Values of Ki were determined by allowing the protease to react with the substrate in the presence of the inhibitor. Reactions were allowed to go for periods of 20-180 minutes (depending on the protease) and the velocities (rate of absorbance or fluorescence change versus time) were measured. The following relationships were used to calculate Ki values: (vo−vs)/vs=I/(Ki(1+S/Km)) for a competitive inhibitor with one binding site; or vs/vo=A+((B−A)/1+((IC50/(I)n))); and Ki═IC50/(1+S/Km) for a competitive inhibitor where: […]

Sequence of purified human Factor XIa (P03951 388-625): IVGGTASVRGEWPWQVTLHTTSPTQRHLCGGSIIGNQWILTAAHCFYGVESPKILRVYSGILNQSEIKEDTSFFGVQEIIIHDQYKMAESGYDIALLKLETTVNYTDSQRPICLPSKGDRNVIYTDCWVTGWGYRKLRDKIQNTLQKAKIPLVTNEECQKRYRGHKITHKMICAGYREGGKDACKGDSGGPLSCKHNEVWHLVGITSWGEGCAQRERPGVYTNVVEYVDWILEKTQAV
Sequence of purified human Factor XIa (P03951 19-387 partner): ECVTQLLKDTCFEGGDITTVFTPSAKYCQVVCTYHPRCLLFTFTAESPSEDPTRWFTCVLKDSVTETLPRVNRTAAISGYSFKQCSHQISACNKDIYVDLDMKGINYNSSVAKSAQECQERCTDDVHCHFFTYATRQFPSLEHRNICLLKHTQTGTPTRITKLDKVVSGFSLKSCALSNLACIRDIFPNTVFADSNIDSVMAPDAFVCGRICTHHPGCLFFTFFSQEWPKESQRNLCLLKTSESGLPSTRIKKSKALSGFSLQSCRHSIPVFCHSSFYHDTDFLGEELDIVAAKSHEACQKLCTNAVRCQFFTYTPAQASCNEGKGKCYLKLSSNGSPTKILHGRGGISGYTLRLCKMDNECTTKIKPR

Compound	Ki
COC1CCN(c2cccc3c2CCN(C(=O)c2ccc(N)cc2)C3C(=O)Nc2ccc(C(=O)O)cc2)CC1 (stereo not drawn) [Example 1, 4-(2-(4-aminobenzoyl)-5-(4-methoxypiperidin-1-yl)-1,2,3,4-tetrahydroisoquinoline-1-carboxamido)benzoic acid, bis-TFA salt]	542 nM
CC1(C)Cc2c(-c3ccc4c(c3)OCO4)cccc2C(C(=O)Nc2ccc(C(=O)O)cc2)N1C(=O)[C@H]1CC[C@H](CN)CC1 (stereo partly drawn) [Example 16]	166 nM
CC1(C)Cc2c(-c3cc4ccccc4s3)cccc2C(C(=O)Nc2ccc(C(=O)O)cc2)N1C(=O)[C@H]1CC[C@H](CN)CC1 (stereo partly drawn) [Example 20]	782 nM

More lines, now with the values ahead:

Ki	Compound
< 5 nM	CNC(=O)c1ccc(-c2cccc3c2CCN(C(=O)[C@H]2CC[C@H](CN)CC2)C3C(=O)Nc2ccc(C(=O)O)cc2)cc1 (stereo partly drawn) [Example 4, 4-(2-((1r,4r)-4-(aminomethyl)cyclohexanecarbonyl)-5-(4-(methylcarbamoyl)phenyl)-1,2,3,4-tetrahydroisoquinoline-1-carboxamido)benzoic acid, TFA Salt]
48.3 nM	CC1(C)Cc2c(-c3ccc4ncccc4c3)cccc2C(C(=O)Nc2ccc(C(=O)O)cc2)N1C(=O)[C@H]1CC[C@H](CN)CC1 (stereo partly drawn) [Example 26]
84.6 nM	NC[C@H]1CC[C@H](C(=O)N2CCc3ccccc3[C@H]2C(=O)Nc2ccc(C(=O)O)cc2)CC1 [Example 32, 4-((S)-2-((1r,4S)-4-(aminomethyl)cyclohexanecarbonyl)-1,2,3,4-tetrahydroisoquinoline-1-carboxamido)benzoic acid, TFA salt]
